Where a name gives a salt, the structure may show the parent alone.
Experiments:
[1] = biological target: T1, cloned human 5-HT6 receptor (Homo sapiens, UniProt P50406); assay: 5-HT6 Receptor Binding Assay; conditions: [3H]-lysergic acid diethylamide (LSD) radioligand, membranes of Hela cells containing the cloned human 5-HT6 receptor, SPA beads; estimated IC50 converted to Ki by Cheng-Prusoff
T1 construct: host or cells: HeLa cells (G-418 selection), membrane preparation
Description: 5-HT6 Receptor Binding Assay
Growth of Cells and Membrane Preparation
Hela cells containing the cloned human 5-HT6 receptor were acquired from Dr. David R. Sibley's laboratory in National Institute of Health (see Sibley, D. R., J. Neurochemistry, 66, 47-56, 1996). Cells were grown in high glucose Dulbecco's modified Eagle's medium, supplemented with L-glutamine, 0.5% sodium pyruvate, 0.3% penicillin-streptomycin, 0.025% G-418 and 5% Gibco fetal bovine serum and then were harvested, when confluent, in cold phosphate-buffered saline.
Harvested intact cells were washed once in cold phosphate-buffered saline. The cells were pelleted and resuspended in 100 ml of cold 50 mM Tris, 5 mM EDTA and 5 mM EGTA, pH 7.4. Homogenization was with a Vir Tishear generator, 4 cycles for 30 seconds each at setting 50. The homogenized cells were centrifuged at 700 RPM (1000×g) for 10 minutes and the supernatant was removed. The pellet was resuspended in 100 ml of the above buffer and rehomogenized for 2 cycles. The rehomogenized cells were then centrifuged at 700 RPM (1000×g) for 10 minutes and the supernatant was removed. The combined supernatant (200ml) was centrifuged at 23,000 RPM (80,000×g) for 1 hour in a Beckman Rotor (42.1 Ti). The membrane pellet was resupended in 50-8-ml of assay buffer containing HEPES 20 mM, MgCl2 10 mM, NaCl 150 mM, EDTA 1 mM, pH 7.4 and stored frozen in aliqouts at −70° C.
The radioligand binding assay used [^3H]-lysergic acid diethylamide (LSD). The assay was carried out in Wallac 96-well sample plates by the addition of 11 μl of the test sample at the appropriate dilution (the assay employed 11 serial concentrations of samples run in duplicate), 11 μl of radioligand, and 178 μl of a washed mixture of WGA-coated SPA beads and membranes in binding buffer. The plates were shaken for about 5 minutes and then incubated at room temperature for 1 hour. The plates were then loaded into counting cassettes and counted in a Wallac MicroBeta Trilux scintillation counter.
Binding Constant (Ki) Determination
Eleven serial dilutions of test compounds were distributed to assay plates using the PE/Cetus Pro/Pette pipetter. These dilutions were, followed by radioligand and the bead-membrane mixture prepared as described above. The specifically bound cpm obtained were fit to a one-site binding model using GraphPad Prism ver. 2.0. Estimated IC50 values were converted to Ki values using the Cheng-Prusoff equation (Cheng, Y. C. et al., Biochem. Pharmacol., 22, 3099-108, 1973).

T1 sequence (P50406 whole entry): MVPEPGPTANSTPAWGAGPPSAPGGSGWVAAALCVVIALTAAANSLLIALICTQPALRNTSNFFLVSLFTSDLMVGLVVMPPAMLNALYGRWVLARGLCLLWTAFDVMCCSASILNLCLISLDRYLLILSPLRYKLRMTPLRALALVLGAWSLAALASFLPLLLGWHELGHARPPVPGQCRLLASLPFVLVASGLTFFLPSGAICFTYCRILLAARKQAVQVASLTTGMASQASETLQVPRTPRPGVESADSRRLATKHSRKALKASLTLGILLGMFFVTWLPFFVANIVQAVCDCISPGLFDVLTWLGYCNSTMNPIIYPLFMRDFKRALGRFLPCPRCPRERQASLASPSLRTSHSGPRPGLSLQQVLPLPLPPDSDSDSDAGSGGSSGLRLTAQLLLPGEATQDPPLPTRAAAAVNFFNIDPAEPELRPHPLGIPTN

Ki [1] [nM]	melting point [°C]	Compound
2.4	122.25 to 123	NCCOc1cccc2c1c1cccc(F)c1n2Cc1ccccc1 [Example 41, 2-[(9-Benzyl-8-fluoro-9H-carbazol-4-yl)oxy]ethylamine]
6.1	187.5 to 188	Cc1ccc2c(c1)c1c(OCCN)cccc1n2Cc1ccccc1.O=C(O)/C=C\C(=O)O [Example 46, 2-[(9-Benzyl-6-methyl-9H-carbazol-4-yl)oxy]ethylamine]
20	59 to 60	CCN(CC)CCOc1cccc2c1c1cccc(F)c1n2Cc1ccc(F)cc1 [Example 42, N,N-Diethyl-N-(2-{[8-fluoro-9-(4-fluorobenzyl)-9H-carbazol-4-yl]oxy}ethyl)amine]
4.5	160	O=C(O)/C=C\C(=O)O.OCCNCCOc1cccc2c1c1ccccc1n2Cc1ccccc1 [Example 49, 2-({2-[(9-benzyl-9H-carbazol-4-yl)oxy]ethyl}amino)-1-ethanol]
–	228.5 to 229	Cc1nc(Cn2c3ccccc3c3c(OCCN)cccc32)cs1 (as salt: methane sulfonate) [Example 51, 2-({9-[(2-Methyl-1,3-thiazol-4-yl)methyl]-9H-carbazol-4-yl}oxy)ethylamine]
180	68 to 69	CCN(CC)CCOc1cccc2c1c1cc(F)ccc1n2Cc1ccccc1 [Example 44, N-{2-[(9-Benzyl-6-fluoro-9H-carbazol-4-yl)oxy]ethyl}-N,N-diethylamine]
2.2	96 to 96.75	CNCCOc1cccc2c1c1cc(C)ccc1n2Cc1ccccc1 [Example 47, N-{2-[(9-Benzyl-6-methyl-9H-carbazol-4-yl)oxy]ethyl}-N-methylamine]
–	> 256	NCCOc1cccc2c1c1ccccc1n2Cc1csc2ccc(Cl)cc12 (as salt: methane sulfonate) [Example 50, 2-({9-[(5-Chloro-1-benzothiophen-3-yl)methyl]-9H-carbazol-4-yl}oxy)ethylamine]
182	96 to 97.5	CCN(CC)CCOc1cccc2c1c1cc(Cl)ccc1n2Cc1ccccc1 [Example 43, N-{2-[(9-Benzyl-6-chloro-9H-carbazol-4-yl)oxy]ethyl}-N,N-diethylamine]
482	–	Cc1ccc(Cn2c3ccccc3c3c(OCCN)cccc32)cc1 [Example 55, 2-{[9-(4-Methylbenzyl)-9H-carbazol-4-yl]oxy}ethylamine]
110	–	COc1cccc(Cn2c3ccccc3c3c(OCCN)cccc32)c1 [Example 57, 2-{[9-(3-Methoxybenzyl)-9H-carbazol-4-yl]oxy}ethylamine]

More lines, now with the values behind:

Compound	Ki [1] [nM]	melting point [°C]
COCCNCCOc1cccc2c1c1ccccc1n2Cc1ccccc1.O=C(O)/C=C\C(=O)O [Example 36, N-{2-[(9-Benzyl-9H-carbazol-4-yl)oxy]ethyl}-N-(2-methoxyethyl)amine]	16	175 to 175.5
CCN(CC)CCOc1cccc2c1c1ccccc1n2Cc1ccccc1 [Example 1, N-{2-[(9-Benzyl-9H-carbazol-4-yl)oxy]ethyl}-N,N-diethylamine]	24	79 to 80.5
CCN(CC)CCOc1cccc2c1c1cccc(Cl)c1n2Cc1ccccc1 [Example 2, N-{2-[(9-Benzyl-8-chloro-9H-carbazol-4-yl)oxy]ethyl}-N,N-diethylamine]	6	73.5 to 75
CNCCOc1cccc2c1c1ccccc1n2Cc1ccccc1.O=C(O)/C=C\C(=O)O [Example 34, N-{2-[(9-Benzyl-9H-carbazol-4-yl)oxy]ethyl}-N-methylamine]	5.7	182.5 to 184.5
O=CNCCOc1cccc2c1c1ccccc1n2Cc1ccccc1 [Example 33, N-{2-[(9-benzyl-9H-carbazol-4-yl)oxy]ethyl}formamide]	211	161 to 162
CCN(CC)CCOc1cccc2c1c1cccc(Cl)c1n2Cc1ccc(F)cc1 [Example 3, N-(2-{[8-Chloro-9-(4-fluorobenzyl)-9H-carbazol-4-yl]oxy}ethyl)-N,N-diethylamine]	22	104.5 to 105.5
CCN(CC)CCOc1cccc2c1c1cccc(F)c1n2Cc1ccccc1 [Example 7, N-{2-[(9-Benzyl-8-fluoro-9H-carbazol-4-yl)oxy]ethyl}-N,N-diethylamine]	2.6	60 to 60.5
c1ccc(Cn2c3ccccc3c3c(OCCN4CCCCC4)cccc32)cc1 [Example 39, 9-Benzyl-4-[2-(1-piperidinyl)ethoxy]-9H-carbazole]	12	113.5 to 114.5
NCCOc1cccc2c1c1ccccc1n2Cc1ccccc1 [Example 35, 2-[(9-Benzyl-9H-carbazol-4-yl)oxy]ethylamine]	23	–
c1ccc(Cn2c3ccccc3c3c(OCCNCc4ccccn4)cccc32)cc1 [Example 6, N-{2-[(9-Benzyl-9H-carbazol-4-yl)oxy]ethyl}-N-(2-pyridinylmethyl)amine]	69	–
c1ccc(CN2CCC(NCCOc3cccc4c3c3ccccc3n4Cc3ccccc3)CC2)cc1 [Example 16, 1-benzyl-N-{2-[(9-benzyl-9H-carbazol-4-yl)oxy]ethyl}-4-piperidinamine]	148	–
OCCOCCNCCOc1cccc2c1c1ccccc1n2Cc1ccccc1 [Example 23, 2-[2-({2-[(9-benzyl-9H-carbazol-4-yl)oxy]ethyl}amino)ethoxy]-1-ethanol]	32	–
c1ccc(Cn2c3ccccc3c3c(OCCN4CCCC4)cccc32)cc1 [Example 38, 9-Benzyl-4-[2-(1-pyrrolidinyl)ethoxy]-9H-carbazole]	6.9	–

From patent US6514968B1, “Aminoalkoxy carbazoles for the treatment of cns diseases” (Pharmacia & Upjohn Company, priority 1999, dated 2003)
